{
  "source": "paper PMC12152189",
  "about": "“Structure of a stripped-down and tuned-up far-red phycobilisome” (Communications Biology, 2025)",
  "assay_in_all_cases": "cryo-EM structure, […] Å",
  "type_in_all_cases": "binding",
  "key": {"ApcE2 (in FR-APC)": {"target": "T1, ApcE2 (in FR-APC) (Chroococcidiopsis thermalis, UniProt K9TUP3)", "T1 construct": "gene Chro_1035; native purification from far-red-grown cells; intact bicylindrical FR-APC; ApcE2 in second (alpha-beta)3 trimer", "T1 sequence (K9TUP3 1-780)": "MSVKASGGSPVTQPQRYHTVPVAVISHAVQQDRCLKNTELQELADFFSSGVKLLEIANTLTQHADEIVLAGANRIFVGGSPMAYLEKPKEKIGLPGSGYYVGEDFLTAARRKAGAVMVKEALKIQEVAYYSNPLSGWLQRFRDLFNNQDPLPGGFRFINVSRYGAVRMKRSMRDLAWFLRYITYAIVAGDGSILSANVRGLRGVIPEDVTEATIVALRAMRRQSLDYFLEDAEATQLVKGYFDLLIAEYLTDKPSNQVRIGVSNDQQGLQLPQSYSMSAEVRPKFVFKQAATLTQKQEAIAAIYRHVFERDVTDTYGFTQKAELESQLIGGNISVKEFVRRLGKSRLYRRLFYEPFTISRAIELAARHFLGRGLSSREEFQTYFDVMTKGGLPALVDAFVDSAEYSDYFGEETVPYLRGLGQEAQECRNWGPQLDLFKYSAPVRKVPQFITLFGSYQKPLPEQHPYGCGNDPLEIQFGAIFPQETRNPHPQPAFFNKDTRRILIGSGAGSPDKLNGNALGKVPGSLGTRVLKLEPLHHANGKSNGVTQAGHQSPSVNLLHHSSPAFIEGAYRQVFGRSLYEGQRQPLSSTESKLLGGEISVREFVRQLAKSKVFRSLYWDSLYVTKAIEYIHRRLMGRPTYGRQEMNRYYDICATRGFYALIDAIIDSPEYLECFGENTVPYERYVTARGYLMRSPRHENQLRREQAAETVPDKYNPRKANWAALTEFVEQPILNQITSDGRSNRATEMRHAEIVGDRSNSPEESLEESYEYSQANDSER", "T1 sequence (K9TY40 1-169 partner)": "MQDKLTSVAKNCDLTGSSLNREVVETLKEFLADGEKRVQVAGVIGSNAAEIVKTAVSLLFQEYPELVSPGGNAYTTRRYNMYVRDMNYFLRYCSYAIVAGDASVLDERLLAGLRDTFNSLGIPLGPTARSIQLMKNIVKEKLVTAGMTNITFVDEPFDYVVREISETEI", "conditions": "non-covalent (no Cys linkage); ZZZ,ssa; ApcF2 Thr76 H-bonds ring D; pH 6.5"}, "ApcB2 (in FR-APC)": {"target": "T2, ApcB2 (in FR-APC) (Chroococcidiopsis thermalis, UniProt K9TVG8)", "T2 construct": "gene Chro_1033; native purification from far-red-grown cells; intact bicylindrical FR-APC; ApcC contacts the proximal ApcB2 bilin only; with Far-red allophycocyanin alpha subunit ApcD5", "T2 sequence (K9TVG8 1-161)": "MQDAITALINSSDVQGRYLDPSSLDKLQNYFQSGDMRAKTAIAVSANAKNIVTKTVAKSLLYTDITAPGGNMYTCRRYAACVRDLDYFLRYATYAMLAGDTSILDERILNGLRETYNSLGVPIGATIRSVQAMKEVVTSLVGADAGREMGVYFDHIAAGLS", "T2 sequence (K9U510 1-67 partner)": "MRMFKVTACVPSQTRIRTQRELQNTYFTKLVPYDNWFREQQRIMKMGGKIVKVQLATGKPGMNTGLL", "conditions": "covalent; several sites, proximal (with ApcC) and distal (without ApcC); pH 6.5"}, "ApcF2 (in FR-APC)": {"target": "T3, ApcF2 (in FR-APC) (Chroococcidiopsis thermalis, UniProt K9TY40)", "T3 construct": "gene Chro_1766; native purification from far-red-grown cells; intact bicylindrical FR-APC; heterodimer with ApcE2; with Far-red phycobilisome core-membrane linker protein ApcE2 (phycobiliprotein ApcE)", "T3 sequence (K9TY40 1-169)": "T1 sequence (K9TY40 1-169 partner)", "T3 sequence (K9TUP3 1-780 partner)": "T1 sequence (K9TUP3 1-780)", "conditions": "non-covalent (no Cys linkage); ZZZ,ssa; Arg77 and Arg84 contact propionates; pH 6.5"}},
  "data": [
    {"smiles": "C/C=C1/C(=C/c2[nH]c(/C=C3N=C(/C=C4\\NC(=O)C(CC)=C4C)C(C)=C\\3CCC(=O)O)c(CCC(=O)O)c2C)NC(=O)[C@@H]1C", "note": "[phycocyanobilin]", "values": [
      {"measurement": "cryo-EM structure, 2.51 Å", "setting": "ApcE2 (in FR-APC)", "value": "the bilin pigments in ApcE2 and ApcF2 are non-covalently bound"},
      {"measurement": "cryo-EM structure, 2.51 Å", "setting": "ApcB2 (in FR-APC)", "value": "ApcB2 is represented in green while phycocyanobilin is represented in blue"},
      {"measurement": "cryo-EM structure, 2.51 Å", "setting": "ApcF2 (in FR-APC)", "value": "in ApcF2 the pigment is in ZZZ,ssa conformation"}
    ]}
  ]
}
